Assay results taken from US20230113609A1, “SSTR5 ANTAGONISTS” (Kallyope, Inc., priority 2019, published 2023).

Each compound was assayed against T1, human SSTR5 (Homo sapiens, UniProt P35346) (assay: Inositol phosphate accumulation assay (IP1 HTRF, antagonist mode)). Conditions: CHO-K1 cells co-expressing human SSTR5 with Gqi5, SST28 agonist at concentration generating 90% of full activation.
T1 construct: expressed in transfected cells
T1 sequence (P35346 whole entry): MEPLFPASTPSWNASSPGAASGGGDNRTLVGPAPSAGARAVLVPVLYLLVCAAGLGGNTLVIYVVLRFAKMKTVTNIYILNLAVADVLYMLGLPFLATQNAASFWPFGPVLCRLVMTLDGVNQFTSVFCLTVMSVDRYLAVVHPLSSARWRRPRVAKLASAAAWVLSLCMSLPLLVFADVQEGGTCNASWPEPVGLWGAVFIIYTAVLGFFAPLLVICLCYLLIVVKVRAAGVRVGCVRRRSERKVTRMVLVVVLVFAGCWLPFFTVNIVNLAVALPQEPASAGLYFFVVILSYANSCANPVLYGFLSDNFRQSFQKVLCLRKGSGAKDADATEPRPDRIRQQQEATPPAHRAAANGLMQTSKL
Format: cell-based
Description: CHO-K1 cells stably co-expressing human SSTR5 with Gqi5 were developed using Jump-In technology from Thermo-Fisher. Gqi5 is the mouse G alpha q protein, that was modified to interact with Gi-coupled GPCRs as described previously (Coward, P.; Chan, S. D.; Wada, H. G.; Humphries, G. M.; Conklin, B. R. Chimeric G proteins Allow a High-Throughput Signaling Assay of Gi-Coupled Receptors. Anal Biochem. 1999, 270(2),242-248).
Co-expression of Gqi5 with SSTR5 allowed monitoring of SSTR5 activity by following IP1 accumulation. The assay was performed in a 384-well plate format using the IP1 assay kit from Cis-Bio in an antagonist mode, i.e., pre-incubation with antagonist following by receptor activation by agonist at a concentration generating 90% of full activation. Frozen cells expressing human SSTR5 were thawed, washed, and then plated in DMEM supplemented with 10% FBS and non-essential amino acids. 40 μL of 2.5×10^5 cells/mL were plated on a Poly D-Lysine coated 384-well white plate. The cells were then incubated for 16 hr. at 37° C/5% CO2. After 16 hour the medium was removed, and 10 μL of stimulation buffer was added to the cells. Test compounds were dissolved in DMSO at concentrations 2000-fold that of the final assay concentrations. 7.5 nLcompound solutions were transferred to the cell plates using a Labcyte Echo® acoustic liquid handler. The plates were then incubated for 15 minutes at 37° C/5%CO2. After the first incubation, 5 μL of 30 nM SST28 were added to the cells, and the cells were incubated for 90 minutes at 37° C/5%CO2. 5 μL of detection buffer (prepared as described in the IP-1 kit) was added to each well, and the plates were incubated at RT for 1 hour.
TR-FRET was measured using a ClarioSTAR plate reader, calculating the ratio between emissions at 665 nm and 620 nm (HTRF ratio). The HTRF ratio for positive (Max) and negative (Min) controls were used to normalize HTRF data and generate values for % inhibition. IC50 and maximal inhibition values were determined using a standard 4-parameter fit.
`CCOc1cc(CN2CCC3(CC2)CN(c2ccc(C(=O)N4CC(C(=O)NCCC[N+](C)(C)C)C4)cc2)C(=O)O3)cc(OCC)c1-c1ccc(F)cc1` [Example 8, 3-(1-(4-(8-((2,6-diethoxy-4′-fluoro-[1,1′-biphenyl]-4-yl)methyl)-2-oxo-1-oxa-3,8-diazaspiro[4.5]decan-3-yl)benzoyl)azetidine-3-carboxamido)-N,N,N-trimethylpropan-1-aminium] showed an IC50 of 1000 to 5000 nM.
With `CCOc1cc(C(=O)OC)c(C2CC2)cc1CN1CCC2(CC1)CC(=O)N(c1ccc(C(=O)NCCCNC(=N)N)cc1)C2` [Example 55, methyl 2-cyclopropyl-5-ethoxy-4-((2-(4-((3-guanidinopropyl)carbamoyl)phenyl)-3-oxo-2,8-diazaspiro [4.5]decan-8-yl)methyl)benzoate] the IC50 was 100 to 1000 nM.
`CCOc1cc(C(=O)OC)c(C2CC2)cc1CN1CCC2(CC1)CC(=O)N(c1ccc(C(=O)N3CC(CO)(CO)C3)cc1)C2` [Example 42, methyl 4-((2-(4-(3,3-bis(hydroxymethyl)azetidine-1-carbonyl)phenyl)-3-oxo-2,8-diazaspiro[4.5]decan-8-yl)methyl)-2-cyclopropyl-5-ethoxybenzoate] showed an IC50 of 1000 to 5000 nM.
Work on `CCOc1cc(C(=O)OC)c(C2CC2)cc1CN1CCC2(CC1)CC(=O)N(c1ccc(C(=O)NC[C@H](O)[C@@H](O)[C@H](O)[C@H](O)CO)cc1)C2` [Example 37, methyl 2-cyclopropyl-5-ethoxy-4-((3-oxo-2-(4-(((2S,3R,4R,5R)-2,3,4,5,6-pentahydroxyhexyl)carbamoyl)phenyl)-2,8-diazaspiro[4.5]decan-8-yl)methyl)benzoate] yielded an IC50 of 1000 to 5000 nM.
Work on `CCOc1cc(C(=O)OC)c(C2CC2)cc1CN1CCC2(CC1)CN(c1ccc(C(=O)NCCOCCO)cc1)C(=O)N2` [Example 76, methyl 2-cyclopropyl-5-ethoxy-4-((3-(4-((2-(2-hydroxyethoxy)ethyl)carbamoyl)phenyl)-2-oxo-1,3,8-triazaspiro[4.5]decan-8-yl)methyl)benzoate] yielded an IC50 of 100 to 1000 nM.
In the case of `CCOc1cc(CN2CCC3(CC2)CN(c2ccc(C(=O)NCCS(=O)(=O)O)cc2)C(=O)O3)cc(OCC)c1-c1ccc(F)cc1` [Example 12, 2-(4-(8-((2,6-diethoxy-4′-fluoro-[1,1′-biphenyl]-4-yl)methyl)-2-oxo-1-oxa-3,8-diazaspiro[4.5]decan-3-yl)benzamido)ethane-1-sulfonic acid], the IC50 is reported as > 5000 nM.
With `CCOc1cc(C(=O)OC)c(C2CC2)cc1CN1CCC2(CC1)CC(=O)N(c1ccc(C(=O)NCCCP(=O)(O)O)cc1)C2` [Example 32, (3-(4-(8-(5-cyclopropyl-2-ethoxy-4-(methoxycarbonyl)benzyl)-3-oxo-2,8-diazaspiro[4.5]decan-2-yl)benzamido)propyl)phosphonic acid] the IC50 was > 5000 nM.
In the case of `CCOc1cc(C(=O)OC)c(C2CC2)cc1CN1CCC2(CC1)CC(=O)N(c1ccc(C(=O)NCCC(O)CO)cc1)C2` (centres unmarked) [Example 48, methyl 2-cyclopropyl-4-((2-(4-((3,4-dihydroxybutyl)carbamoyl)phenyl)-3-oxo-2,8-diazaspiro[4.5]decan-8-yl)methyl)-5-ethoxybenzoate], the IC50 is reported as 100 to 1000 nM.
Work on `CCOc1cc(C(=O)OC)c(C2CC2)cc1CN1CCN(C(=O)Oc2ccc(C(=O)N3CC(CNC[C@H](O)[C@@H](O)[C@H](O)[C@H](O)CO)C3)cc2)CC1` [Example 99, 4-(3-((((2S,3R,4R,5R)-2,3,4,5,6-pentahydroxyhexyl)amino)methyl)azetidine-1-carbonyl)phenyl 4-(5-cyclopropyl-2-ethoxy-4-(methoxycarbonyl)benzyl)piperazine-1-carboxylate] yielded an IC50 of 100 to 1000 nM.
With `CCOc1cc(-c2ccc(F)cn2)c(C2CC2)cc1CN1CCC2(CC1)CN([C@H]1CC[C@](C)(C(=O)NCCCS(=O)(=O)O)CC1)C(=O)O2` [compound 91] the IC50 was ≤ 100 nM.
`CCOc1cc(C(=O)OC)c(C2CC2)cc1CN1CCC2(CC1)CC(=O)N(c1ccc(C(=O)N3CCC(CS(N)(=O)=O)CC3)cc1)C2` [Example 53, methyl 2-cyclopropyl-5-ethoxy-4-((3-oxo-2-(4-(4-(sulfamoylmethyl)piperidine-1-carbonyl)phenyl)-2,8-diazaspiro[4.5]decan-8-yl)methyl)benzoate] was tested, and the IC50 was 100 to 1000 nM.
`CCOc1cc(-c2ccc(F)cc2)c(C2CC2)cc1CN1CCC2(CC1)CN(c1ccc(C(=O)NCCO)cc1)C(=O)N2` [Example 69, 4-(8-((2-cyclopropyl-5-ethoxy-4′-fluoro-[1,1′-biphenyl]-4-yl)methyl)-2-oxo-1,3,8-triazaspiro[4.5]decan-3-yl)-N-(2-hydroxyethyl)benzamide] was tested, and the IC50 was ≤ 100 nM.
In the case of `CCOc1cc(-c2ccc(F)cc2)c(C2CC2)cc1CN1CCC2(CC1)CN(c1ccc(S(=O)(=O)NCCCNC(=N)N)cc1)C(=O)O2` [compound 80, 4-(8-((2-cyclopropyl-5-ethoxy-4′-fluoro-[1,1′-biphenyl]-4-yl)methyl)-2-oxo-1-oxa-3,8-diazaspiro [4.5]decan-3-yl)-N-(3-guanidinopropyl)benzenesulfonamide], the IC50 is reported as ≤ 100 nM.
`CCOc1cc(C(=O)OC)c(C2CC2)cc1CN1CCC2(CC1)CC(=O)N(c1ccc(CCCC(=O)NC(C)(C)C(=O)NCCN(C)C)cc1)C2` [Example 17, methyl 2-cyclopropyl-4-((2-(4-(4-((1-((2-(dimethylamino)ethyl)amino)-2-methyl-1-oxopropan-2-yl)amino)-4-oxobutyl)phenyl)-3-oxo-2.8-diazaspiro[4.5]decan-8-yl)methyl)-5-ethoxybenzoate] was tested, and the IC50 was 1000 to 5000 nM.
`CCOc1cc(C(=O)OC)c(C2CC2)cc1CN1CCC2(CC1)CC(=O)N(c1ccc(C(=O)NCCCO)cc1)C2` [Example 27, methyl 2-cyclopropyl-5-ethoxy-4-((2-(4-((3-hydroxypropyl)carbamoyl)phenyl)-3-oxo-2,8-diazaspiro[4.5]decan-8-yl)methyl)benzoate] was tested, and the IC50 was > 5000 nM.
`CCOc1cc(C#N)c(C2CC2)cc1CN1CCN(C(=O)Oc2ccc(C(=O)NCCCC(=O)NCCO)cc2)CC1` [compound 95, [4-[[4-(2-hydroxyethylamino)-4-oxo-butyl]carbamoyl]phenyl]4-[(4-cyano-5-cyclopropyl-2-ethoxy-phenyl)methyl]piperazine-1-carboxylate] was tested, and the IC50 was > 5000 nM.
For `CCOc1cc(CN2CCC3(CC2)CN(c2ccc(C(=O)NCCC[N+](C)(C)C)cc2)C(=O)O3)cc(OCC)c1-c1ccc(F)cc1` [Example 6, 3-(4-(8-((2,6-diethoxy-4′-fluoro-[1,1′-biphenyl]-4-yl)methyl)-2-oxo-1-oxa-3,8-diazaspiro[4.5]decan-3-yl)benzamido)-N,N,N-trimethylpropan-1-aminium], the IC50 was 100 to 1000 nM.
With `CCOc1cc(-c2ccc(F)cc2)c(C2CC2)cc1CN1CCC2(CC1)CN(c1ccc(C(=O)NCCS(=O)(=O)O)cc1)C(=O)N2` [Example 71, 2-(4-(8-((2-cyclopropyl-5-ethoxy-4′-fluoro-[1,1′-biphenyl]-4-yl)methyl)-2-oxo-1,3,8-triazaspiro[4.5]decan-3-yl)benzamido)ethane-1-sulfonic acid] the IC50 was ≤ 100 nM.
With `CCOc1cc(CN2CCC3(CC2)CN(c2ccc(C(=O)NCCCS(=O)(=O)O)cc2)C(=O)O3)cc(OCC)c1-c1ccc(F)cc1` [Example 11, 3-(4-(8-((2,6-diethoxy-4′-fluoro-[1,1′-biphenyl]-4-yl)methyl)-2-oxo-1-oxa-3,8-diazaspiro[4.5]decan-3-yl)benzamido)propane-1-sulfonic acid] the IC50 was ≤ 100 nM.
In the case of `CCOc1cc(CN2CCC3(CC2)CN(c2ccc(C(=O)NCCCCS(=O)(=O)O)cc2)C(=O)O3)cc(OCC)c1-c1ccc(F)cc1` [Example 10, 4-(4-(8-((2,6-diethoxy-4′-fluoro-[1,1′-biphenyl]-4-yl)methyl)-2-oxo-1-oxa-3,8-diazaspiro[4.5]decan-3-yl)benzamido)butane-1-sulfonic acid], the IC50 is reported as ≤ 100 nM.
For `CCOc1cc(C(=O)OC)c(C2CC2)cc1CN1CCC2(CC1)CC(=O)N(c1ccc(CC(=O)NCCNC(=O)NC(CO)(CO)CO)cc1)C2` [Example 14, methyl 2-cyclopropyl-4-((2-(4-(2-((2-(3-(1,3-dihydroxy-2-(hydroxymethyl)propan-2-yl)ureido)ethyl)amino)-2-oxoethyl)phenyl)-3-oxo-2,8-diazaspiro[4.5]decan-8-yl)methyl)-5-ethoxy benzoate], the IC50 was > 5000 nM.
In the case of `CCOc1cc(C(=O)OC)c(C2CC2)cc1CN1CCC2(CC1)CN(c1ccc(C(=O)NCCCS(=O)(=O)O)cc1)C(=O)N2` [Example 78, 3-(4-(8-(5-cyclopropyl-2-ethoxy-4-(methoxycarbonyl)benzyl)-2-oxo-1,3,8-triazaspiro[4.5]decan-3-yl)benzamido)propane-1-sulfonic acid], the IC50 is reported as > 5000 nM.
In the case of `CCOc1cc(C(=O)OC)c(C2CC2)cc1CN1CCC2(CC1)CC(=O)N(c1ccc(C(=O)NC(CO)CO)cc1)C2` [Example 19, methyl 2-cyclopropyl-4-((2-(4-((1,3-dihydroxypropan-2-yl)carbamoyl)phenyl)-3-oxo-2.8-diazaspiro[4.5]decan-8-yl)methyl)-5-ethoxybenzoate], the IC50 is reported as 100 to 1000 nM.
